Measurements as given in patent publication US20110301200A1, “THYROID RECEPTOR LIGANDS” (CADILA HEALTHCARE LIMITED, priority 2008, published 2011).

Tests used:
TR-α = molecular target: T1, TR-α (Homo sapiens, UniProt P10827); test: In vitro TR-α activity (in-house protocol); type: cell-based; settings: read-out: TR-α Fold Induction w.r.t T3(100 nm); for fold induction at 0.001 µM: Conc. 1 nM; for fold induction at 0.01 µM: Conc. 10 nM; for fold induction at 0.1 µM: Conc. 100 nM; for fold induction at 1 µM: Conc. 1000 nM
T1 sequence (P10827 1-410 isoform P10827-2): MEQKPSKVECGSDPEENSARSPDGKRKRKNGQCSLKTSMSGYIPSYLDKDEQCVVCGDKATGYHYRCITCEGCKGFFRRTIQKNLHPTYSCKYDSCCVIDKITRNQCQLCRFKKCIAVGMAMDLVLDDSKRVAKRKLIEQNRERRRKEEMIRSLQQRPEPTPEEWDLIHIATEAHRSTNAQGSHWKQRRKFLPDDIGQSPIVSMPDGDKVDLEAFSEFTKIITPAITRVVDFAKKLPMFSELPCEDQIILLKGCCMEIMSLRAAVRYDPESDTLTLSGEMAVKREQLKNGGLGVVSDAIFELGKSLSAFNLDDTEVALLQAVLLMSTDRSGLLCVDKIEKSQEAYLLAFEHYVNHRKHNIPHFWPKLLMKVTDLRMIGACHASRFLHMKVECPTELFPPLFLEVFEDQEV
Method: (§1) In vitro TR-α & TR-β activities were determined as per in-house protocols and the results of representative compounds are provided in tables 1 & 2 below as a proof of the efficacies of the novel class of compounds disclosed above.

TR-β = molecular target: T2, TR-β (Homo sapiens, UniProt P10828); test: In vitro TR-β activity (in-house protocol); type: cell-based; settings: read-out: TR-β Fold Induction w.r.t T3(100 nm); for fold induction at 0.001 µM: Conc. 1 nM; for fold induction at 0.01 µM: Conc. 10 nM; for fold induction at 0.1 µM: Conc. 100 nM; for fold induction at 1 µM: Conc. 1000 nM
T2 sequence (P10828 1-461): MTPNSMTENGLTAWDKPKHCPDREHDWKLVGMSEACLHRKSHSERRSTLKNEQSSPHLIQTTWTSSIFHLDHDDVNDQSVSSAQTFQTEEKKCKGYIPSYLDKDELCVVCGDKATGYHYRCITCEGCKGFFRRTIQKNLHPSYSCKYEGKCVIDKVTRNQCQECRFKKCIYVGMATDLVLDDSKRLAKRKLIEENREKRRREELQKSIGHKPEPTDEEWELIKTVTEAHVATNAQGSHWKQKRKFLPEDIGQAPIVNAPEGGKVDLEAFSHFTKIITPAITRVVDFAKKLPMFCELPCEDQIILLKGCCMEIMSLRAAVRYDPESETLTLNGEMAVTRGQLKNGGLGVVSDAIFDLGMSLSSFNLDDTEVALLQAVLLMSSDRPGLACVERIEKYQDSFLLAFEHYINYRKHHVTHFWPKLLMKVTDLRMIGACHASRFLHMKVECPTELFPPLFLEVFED
Method: as §1

Row | Compound | fold induction at 0.001 µM (TR-α) | fold induction at 0.01 µM (TR-α) | fold induction at 0.1 µM (TR-α) | fold induction at 1 µM (TR-α) | fold induction at 0.001 µM (TR-β) | fold induction at 0.01 µM (TR-β) | fold induction at 0.1 µM (TR-β) | fold induction at 1 µM (TR-β)
1 | CCN(CC)S(=O)(=O)c1cc(Oc2c(Br)cc(C=NOC(C)C(=O)O)cc2Br)ccc1O (stereo not shown) [Example 38, 2-(((3,5-dibromo-4-(3-(N,N-diethylsulfamoyl)-4-hydroxyphenoxy)benzylidene)amino)oxy)propanoic acid] | 10.1 | 16.4 | 25.3 | 76.2 | 11.8 | 13.6 | 25 | 82.2
2 | CC(ON=Cc1cc(Br)c(Oc2ccc(O)c(C(=O)c3ccc(Cl)cc3)c2)c(Br)c1)C(=O)O (stereo not shown) [Example 26, 2-(((3,5-dibromo-4-(3-(4-chlorobenzoyl)-4-hydroxyphenoxy)benzylidene)amino)oxy)propanoic acid] | 12.1 | 13.9 | 34.9 | 64.5 | 9.62 | 13.2 | 41.2 | 76.2
3 | O=C(O)CON=Cc1cc(Cl)c(Oc2ccc(O)c(-c3ccccc3)c2)c(Cl)c1 [Example 4, 2-(((3,5-dichloro-4-((6-hydroxy-[1,1′-biphenyl]-3-yl)oxy)benzylidene)amino)oxy)acetic acid] | 11 | 9.45 | 14 | 35.5 | 11.4 | 10.5 | 19.3 | 64.4
4 | CCC(ON=Cc1cc(Br)c(Oc2ccc(O)c(C(C)CC)c2)c(Br)c1)C(=O)O (stereo not shown) [Example 19, 2-(((3,5-dibromo-4-(3-(sec-butyl)-4-hydroxyphenoxy)benzylidene)amino)oxy)butanoic acid] | 34.4 | 80.8 | 64.2 | 109 | 20.2 | 69.7 | 86.2 | 90.8
5 | O=C(O)CON=Cc1cc(Cl)c(Oc2ccc(O)c(Cc3ccccc3)c2)c(Cl)c1 [Example 5, 2-(((4-(3-benzyl-4-hydroxyphenoxy)-3,5-dichlorobenzylidene)amino)oxy)acetic acid] | 14.2 | 10.8 | 28.3 | 57 | 14.8 | 12 | 43.6 | 80.5
6 | CCC(C)c1cc(Oc2c(Br)cc(C=NOC(C(=O)O)c3ccccc3)cc2Br)ccc1O (stereo not shown) [Example 18, 2-(((3,5-dibromo-4-(3-(sec-butyl)-4-hydroxyphenoxy)benzylidene)amino)oxy)-2-phenylacetic acid] | 15.5 | 36 | 77 | 90.4 | 13.8 | 20.8 | 69.5 | 122
7 | CC(ON=Cc1cc(Br)c(Oc2ccc(O)c(S(=O)(=O)N3CCCCC3)c2)c(Br)c1)C(=O)O (stereo not shown) [Example 36, 2-(((3,5-dibromo-4-(4-hydroxy-3-(piperidin-1-ylsulfonyl)phenoxy)benzylidene)amino)oxy)propanoic acid] | 14.1 | 15.4 | 57.8 | 128 | 11 | 19.7 | 58.2 | 107
8 | O=C(O)CON=Cc1cc(Br)c(Oc2ccc(O)c(C(O)c3ccc(Cl)cc3)c2)c(Br)c1 (stereo not shown) [Example 29, 2-(((3,5-dibromo-4-(3-((4-chlorophenyl)(hydroxy)methyl)-4-hydroxyphenoxy)benzylidene)amino)oxy)acetic acid] | 17.6 | 21.2 | 29.9 | 64.2 | 10.6 | 12.1 | 33.5 | 68.5
